Assay results reported in ChEMBL document CHEMBL1212746, “Assessment of the in vitro kinetic activity of caspofungin against Candida glabrata” (2010).
Values after ≈ are worked out from the molar mass of the structure shown.

What was measured:
Nakaseomyces glabratus [1] = assay: Antifungal activity against Candida glabrata by broth microdilution assay; format: functional
Nakaseomyces glabratus [2] = assay: Antifungal activity against Candida glabrata assessed as fungicidal activity by broth microdilution assay; format: functional
Nakaseomyces glabratus [3] = assay: Antifungal activity against fluconazole-resistant Candida glabrata isolate 02 by broth microdilution assay; format: functional
Nakaseomyces glabratus [4] = assay: Antifungal activity against fluconazole-resistant Candida glabrata isolate 03 by broth microdilution assay; format: functional
Nakaseomyces glabratus [5] = assay: Antifungal activity against fluconazole-resistant Candida glabrata isolate 05 by broth microdilution assay; format: functional
Nakaseomyces glabratus [6] = assay: Antifungal activity against fluconazole-resistant Candida glabrata isolate 01 by broth microdilution assay; format: functional
Nakaseomyces glabratus [7] = assay: Antifungal activity against fluconazole-resistant Candida glabrata isolate 04 by broth microdilution assay; format: functional
Nakaseomyces glabratus [8] = assay: Antifungal activity against fluconazole-resistant Candida glabrata isolate 01 in presence of fluconazole by broth microdilution assay; format: functional
Nakaseomyces glabratus [9] = assay: Antifungal activity against fluconazole-susceptible Candida glabrata isolate 03 in presence of fluconazole by broth microdilution assay
Nakaseomyces glabratus [10] = assay: Antifungal activity against fluconazole-resistant Candida glabrata isolate 02 in presence of voriconazole by broth microdilution assay
Nakaseomyces glabratus [11] = assay: Antifungal activity against fluconazole-resistant Candida glabrata isolate 04 in presence of fluconazole by broth microdilution assay; format: functional
Nakaseomyces glabratus [12] = assay: Antifungal activity against Candida glabrata assessed as time to kill at 1 ug/ml; format: functional
Nakaseomyces glabratus [13] = assay: Antifungal activity against fluconazole-resistant Candida glabrata isolate 05 in presence of amphotericin B by broth microdilution assay
Nakaseomyces glabratus [14] = assay: Antifungal activity against Candida glabrata assessed as time to kill at 4 ug/ml; format: functional

Compound: C[C@@H]1[C@H](O)[C@@H](C)/C=C/C=C/C=C/C=C/C=C/C=C/C=C/[C@H](O[C@@H]2O[C@H](C)[C@@H](O)[C@H](N)[C@@H]2O)C[C@@H]2O[C@](O)(C[C@@H](O)C[C@@H](O)[C@H](O)CC[C@@H](O)C[C@@H](O)CC(=O)O[C@H]1C)C[C@H](O)[C@H]2C(=O)O [AMPHOTERICIN B]
- MIC50 (Nakaseomyces glabratus [1]): 0.5 µg/mL (≈ 0.541 µM)
- MIC90 (Nakaseomyces glabratus [1]): 1 µg/mL (≈ 1.08 µM)
- MFC (Nakaseomyces glabratus [2]): 1 µg/mL

Compound: OC(Cn1cncn1)(Cn1cncn1)c1ccc(F)cc1F [FLUCONAZOLE]
- MIC (Nakaseomyces glabratus [3]): 64 µg/mL (≈ 209 µM)
- MIC (Nakaseomyces glabratus [4]): 2 µg/mL (≈ 6.53 µM)
- MIC (Nakaseomyces glabratus [5]): 1 µg/mL (≈ 3.27 µM)
- MIC (Nakaseomyces glabratus [6]): 128 µg/mL (≈ 418 µM)
- MIC (Nakaseomyces glabratus [7]): 32 µg/mL (≈ 104 µM)
- MIC50 (Nakaseomyces glabratus [1]): 4 µg/mL (≈ 13.1 µM)
- MIC90 (Nakaseomyces glabratus [1]): 32 µg/mL (≈ 104 µM)
- MFC (Nakaseomyces glabratus [2]): > 128 µg/mL

Compound: CC[C@H](C)C[C@H](C)CCCCCCCCC(=O)N[C@H]1C[C@@H](O)[C@@H](NCCN)NC(=O)[C@@H]2[C@@H](O)CCN2C(=O)[C@H]([C@H](O)CCN)NC(=O)[C@H]([C@H](O)[C@@H](O)c2ccc(O)cc2)NC(=O)[C@@H]2C[C@@H](O)CN2C(=O)[C@H]([C@@H](C)O)NC1=O [CASPOFUNGIN]
- fractional inhibitory concentration index (FICI) (Nakaseomyces glabratus [8]): <0.5
- fractional inhibitory concentration index (FICI) (Nakaseomyces glabratus [9]): 0.185
- fractional inhibitory concentration index (FICI) (Nakaseomyces glabratus [10]): 0.56
- MIC (Nakaseomyces glabratus [3]): 0.25 µg/mL (≈ 0.229 µM)
- MIC (Nakaseomyces glabratus [4]): 0.5 µg/mL (≈ 0.457 µM)
- MIC (Nakaseomyces glabratus [5]): 0.25 µg/mL (≈ 0.229 µM)
- MIC (Nakaseomyces glabratus [6]): 0.5 µg/mL (≈ 0.457 µM)
- MIC (Nakaseomyces glabratus [7]): 0.5 µg/mL (≈ 0.457 µM)
- fractional inhibitory concentration index (FICI) (Nakaseomyces glabratus [11]): 0.5625
- MIC50 (Nakaseomyces glabratus [1]): 0.5 µg/mL (≈ 0.457 µM)
- MIC90 (Nakaseomyces glabratus [1]): 2 µg/mL (≈ 1.83 µM)
- MFC (Nakaseomyces glabratus [2]): 4 µg/mL
- Time (Nakaseomyces glabratus [12]): 4 h
- fractional inhibitory concentration index (FICI) (Nakaseomyces glabratus [13]): 1.06
- Time (Nakaseomyces glabratus [14]): 2 h

Compound: C[C@@H](c1ncncc1F)[C@](O)(Cn1cncn1)c1ccc(F)cc1F [VORICONAZOLE]
- MIC50 (Nakaseomyces glabratus [1]): 0.125 µg/mL (≈ 0.358 µM)
- MIC90 (Nakaseomyces glabratus [1]): 1 µg/mL (≈ 2.86 µM)
- MFC (Nakaseomyces glabratus [2]): > 32 µg/mL
